This is an account of results in patent US8501483B2, “Method of assessing cancer status in a breast cancer patient” (University College Dublin, National University of Ireland, …, priority 2008, dated 2013).

Molecules are shown by their SMILES.

Test [1] concerns interactions between SRC-1 and HOX-C11. The test is described as follows: Immunoprecipitation of SRC-1 and subsequent immunoblot for HOX-C11 in endocrine resistant LY2 cells. Type of test: cell-based. The settings on record: endocrine resistant breast cancer LY2 cells, 10^−8 M, FIG. 1. Here is the method:
FIG. 1: Confirmation of differential interactions between SRC-1 and HOX-C11 in endocrine resistant breast cancer LY2 cells in the presence of tamoxifen (4-OHT) and faslodex (ICI) (10^−8 M) was performed by immunoprecipitation of SRC-1 and subsequent immunoblot for HOX-C11.
(§1) Increased interactions between HOX-C11 and SRC-1 were found in endocrine resistant versus endocrine sensitive breast cancer. Furthermore these interactions were enhanced in the presence of endocrine modulators, tamoxifen and faslodex (FIG. 1). In primary breast cancer tissue HOX-C11 and SRC-1 were co-localised to the nucleus and perinuclear region of the tumour epithelial cells (FIG. 2). A greater interaction occurred in tamoxifen-resistant LY2 cells, compared with the parent MCF-7 sensitive cell line. HOX genes play a central role in ductal formation and lobulo-aleolar development by regulating epithelial proliferation and differentiation in the developing breast and have been implicated in steroid/growth-factor pathway crosstalk. […] S100β has been identified as a possible target gene of the HOX-C11 transcription factor. Several HOX responsive elements have been identified in the promoter of S100β and forced expression of HOX-C11 in neuronal cells induces expression of S100β. […]
On the technique in general: Immunoblotting shows a protein as a band on a membrane.

Test [2] concerns HOX-C11. The test is described as follows: Immunocytochemistry of HOX-C11 in tamoxifen-resistant cells. The test is classed as cell-based.
Text: as §1, with “S100β. This family of calcium binding protein is secreted and has previously been associated with poor outcome and reduced disease-free survival in melanoma. Experimental data provides evidence for a functional interaction between SRC-1 and HOX-C11. Knockdown of SRC-1 using siRNA abrogated the HOX-C11 associated induction of S100β (FIG. 4B).” for “S100β.”

As to `CC/C(=C(\c1ccccc1)c1ccc(OCCN(C)C)cc1)c1ccccc1` [tamoxifen], the “interactions between HOX-C11 and SRC-1” value in test [1] was “enhanced”. Besides, in test [2], the “HOX-C11 localisation when cells were treated” value is “translocate to the nucleus and peri-nuclear region”.
For `C[C@]12CC[C@@H]3c4ccc(O)cc4C[C@@H](CCCCCCCCC[S+]([O-])CCCC(F)(F)C(F)(F)F)[C@H]3[C@@H]1CC[C@@H]2O` (stereo partly shown) [faslodex], the “interactions between HOX-C11 and SRC-1” value in test [1] is “enhanced”. In test [2], the “HOX-C11 localisation when cells were treated” value was “translocate to the nucleus and peri-nuclear region”.
